# Laboratory results from patent US7319110B2, “1H-1,2,4-triazole-3-carboxamide derivatives having cannabinoid-CB1 receptor agonistic, partial agonistic, inverse agonistic or antagonistic activity” (Solvay Pharmaceuticals B.V., priority 2002, dated 2008).
row,melting point,SMILES
1,238 to 240 °C (dec.),Cl.O=C(NN1CCCCC1)c1nc(-c2ccc(Cl)cc2)n(-c2ccc(Cl)cc2Cl)n1
2,224 to 226 °C,Cl.O=C(NN1CCOCC1)c1nc(-c2ccc(Cl)cc2Cl)n(-c2ccc(Cl)cc2)n1
3,191 to 193 °C,O=C(NN1CCCCC1)c1nc(-c2ccccn2)n(-c2ccc(Cl)cc2Cl)n1
4,159 to 161 °C,O=C(NN1CCCCC1)c1nc(-c2ccc(Cl)cc2Cl)n(-c2ccc(C(F)(F)F)cc2)n1
5,219 °C,O=C(NN1CCCCC1)c1nc(-c2cccnc2)n(-c2ccc(Cl)cc2Cl)n1
6,150 to 152 °C,CC(C)(C)ONC(=O)c1nc(-c2ccc(Cl)cc2)n(-c2ccc(Cl)cc2Cl)n1
7,184 to 186 °C,O=C(NN1CCOCC1)c1nc(-c2ccc(Cl)cc2)n(-c2ccc(Cl)cc2Cl)n1
8,234 to 236 °C (dec.),Cl.O=C(NN1CCCC1)c1nc(-c2ccc(Cl)cc2Cl)n(-c2ccc(Cl)cc2)n1
9,248 to 255 °C (dec.),"Cl.O=C(NN1CCCC1)c1nc(-c2ccc(Cl)cc2)n(-c2ccc(Cl)cc2Cl)n1 [Example 2, 5-(4-Chlorophenyl)-1-(2,4-dichlorophenyl)-N-(pyrrolidin-1-yl)-1H-1,2,4-triazole-3-carboxamide hydrochloride]"
10,186 to 188 °C,"O=C(NC1CCCCC1)c1nc(-c2ccc(Cl)cc2)n(-c2ccc(Cl)cc2Cl)n1 [Example 3, 5-(4-Chlorophenyl)-N-cyclohexyl-1-(2,4-dichlorophenyl)-1H-1,2,4-triazole-3-carboxamide]"
